The record followed here is paper PMC5665932, “A novel peptide that improves metabolic parameters without adverse central nervous system effects” (Scientific Reports, 2017).

The test system of data set [1] is Male C57BL/6J mice. Type of data set: in vivo. The following applies: 0.1 or 1 mg/kg i.p. for 10 days. On the procedure: Male C57BL/6J mice received a chronic treatment with Pep19 (0.1 or 1 mg/kg) or saline administrated i.p. for 10 days, once a day. The same animal was tested in the EPM and FST 30 and 35 minutes after the last injection, respectively.
Supplemental Figure 2. In vivo assays showing results of chronic treatment with Pep19 i.p. for 10 days. To further confirm the lack of in vivo effects of Pep19, it was chronically administrated for 10 days, and the behavior effects were evaluated in the tetrad cannabinoid tests, consisting of (a) catalepsy, (b) tail temperature, (c) locomotor activity and (d) hot plate test. Note that no […]
(saline) or Pep19 (one-way ANOVA followed by Tukey’s test, n = 6/group), […]
(a-d; * P<0.05). In the elevated plus maze (e, f) the anxiety-like activity of chronic administration was evaluated following i.p. injections of 0.1 or 1 mg/kg […]
groups treated with vehicle or Pep19 (one-way ANOVA followed by Tukey’s […]
locomotor (g) and speed travelled (h) in the elevated plus maze. In the forced swim test (i), chronic administration of Pep19 i.p. for 10 days produced no significant differences (one-way ANOVA followed by Tukey’s test, n = 6-7/ […]

Data set [2] concerns Male Wistar rats. The experiment in a line: Elevated plus maze. Conditions: 100–600 µg/kg, one hour after administration, 5 min, n = 7–9/group. Type of data set: in vivo. On the procedure:
Male Wistar rats were tested in a wooden-made elevated plus maze according to Hefner and Holmes[43] one hour after vehicle or Pep19 i.p. administration (100–600 µg/kg). The percentage of entries, time spent in the open arms, and the number of enclosed arms entries for 5 min were analyzed by the Anymaze Software (version 4.5, Stoelting, USA). Locomotor activity and speed traveled were also recorded.

The subject of data set [3] is Male Wistar rats. The experiment in a line: Forced swim test. Type of data set: in vivo. Conditions: first 5 min of the swim test, n = 6/group (Pep19), n = 8–10/group (rimonabant). The procedure: The forced swim test was based on previous designs. Male Wistar rats were placed in a cylindrical plexiglass tank (50 cm high and 30 cm diameter) filled with water (19 °C) up to a level of 25 cm from the bottom. The animal’s behavior during the first 5 min of the swim test was scored by a trained observer and the following measures were taken: (1) time spent swimming, defined as movements of all four limbs, swimming around the tank or diving and (2) time spent floating, defined as the time the animal remained immobile with only occasional slight movements to keep the body balanced and the nose above the water.

The test system of data set [4] is DIO Wistar rats. The experiment in a line: Tail-cuff blood pressure and heart rate in DIO rats. Type of data set: in vivo. The following applies: oral by gavage, mean ± SEM. The procedure:
Measurements of systolic blood pressure were performed at the proximal part of the tail, by a tail-cuff method using the Kent RTBP2000 system and the Kent RTB001-R data acquisition system (Kent Scientific Corporation, Torrington, CT, USA) from 9 to 11 a.m. Before measurements, rats were warmed for 10 min and three stable consecutive measurements were taken and averaged after animals have been trained for proper adaptation to the procedures.

Data set [5] deals with T1, CB1R (Mus musculus, UniProt P47746).
T1 construct: Membranes were prepared from 3T3-L1 cells endogenously expressing CB1R; endogenous in cells; host or cells: 3T3-L1 cells (membranes)
T1 sequence (P47746 whole entry): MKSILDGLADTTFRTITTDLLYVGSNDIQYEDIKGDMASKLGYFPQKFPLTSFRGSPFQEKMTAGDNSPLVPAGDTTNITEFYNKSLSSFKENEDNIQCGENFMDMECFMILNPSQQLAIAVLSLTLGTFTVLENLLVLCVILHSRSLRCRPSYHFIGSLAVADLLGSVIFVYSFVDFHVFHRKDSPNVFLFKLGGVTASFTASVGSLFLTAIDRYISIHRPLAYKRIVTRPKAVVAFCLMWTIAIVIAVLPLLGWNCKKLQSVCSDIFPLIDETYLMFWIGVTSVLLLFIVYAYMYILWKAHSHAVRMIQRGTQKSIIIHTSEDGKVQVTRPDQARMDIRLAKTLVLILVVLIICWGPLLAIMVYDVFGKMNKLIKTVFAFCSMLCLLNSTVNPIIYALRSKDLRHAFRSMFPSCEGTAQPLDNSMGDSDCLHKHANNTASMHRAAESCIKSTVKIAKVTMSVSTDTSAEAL
Kind of data set: Displacement of [3H]SR141716A binding, membranes of 3T3-L1 cells. The following applies: membranes (250 μg) of 3T3-L1 cells endogenously expressing CB1R, [3H]SR141716A 3 nM, Pep19 0–10 μM, 1 h at 30 °C, pH 7.8, n = 3; read-out: IC50, displaces [3H]SR141716A binding. The procedure:
Membranes were prepared from 3T3-L1 cells endogenously expressing CB1R, and displacement ligand binding assays were carried out as previously described[8] with minor modifications. Briefly, membranes (250 μg) were incubated with [^3H] SR141716A (3 nM) in 50 mM Tris-Cl, pH 7.8, containing 1 mM EGTA, 5 mM MgCl2, and protease inhibitor cocktail in the presence of Pep19 (0–10 μM) for 1 h at 30 °C. At the end of the incubation period, membranes were filtered using a Brandel filtration system and GF/B filters (presoaked for 2 h at room temperature with 0.1% polyethyleneimine containing 0.2% fatty acid free BSA), filters were washed 3 times with ice-cold 50 mM Tris-Cl (pH 7.4) and bound radioactivity measured using a liquid scintillation counter.
Supplemental Figure 1. Ligand binding studies with Pep19. Membranes were prepared from 3T3L-1 cells endogenously expressing CB1R, and displacement ligand binding assays were carried out as previously described8 with minor modifications. Membranes (250 μg) were incubated with [3H]SR141716A (3 nM) in 50 mM Tris-Cl, pH 7.8, containing 1 mM EGTA, 5 mM MgCl2, and protease inhibitor cocktail in the presence of Pep19 (0-10 μM).
Values in the absence of Pep19 were taken as 100%. Data represent mean ± […]
(1 picture or pasted object on this page, not shown here)

Data set [6] relates to HeLa cells. Type of data set: cell-based. Conditions: up to 100 µM, n = 3/group. The procedure:
(§1) HeLa and HEK293-T cells were cultured in DMEM (Dulbecco’s Modified Eagle Medium, Gibco®, USA) containing 10% fetal bovine serum (complete medium), penicillin and streptomycin (Gibco®, USA) at 37 °C and in presence of 5% of CO2. For cell counting, single cell suspension of HeLa and HEK293-T cells were rinsed with PBS and treated with 0.4% Trypan blue in PBS for 90 s. Excess dye was removed, and the cells were washed twice with PBS before counting. For a control of 100% permeabilized cells they were treated with 50% ethanol for 1 min and then stained as described above. In all of the experiments cellular viability was greater than 98% (data not shown). The MTT (3-(4,5-dimethylthiazol-2-yl)-2,5-diphenyltetrazolium bromide) tetrazolium reduction assays were conducted in a 96-well format. The optical density was measured at 570 nm using a SpectraMax M2 (Molecular Devices, Sunnyvale, CA, USA). Three independent experiments were conducted in triplicates for each treatment.

Data set [7] concerns HEK293T cells. Type of data set: cell-based. Conditions: up to 100 µM, n = 3/group. On the procedure:
as §1

In data set [8] the test system is C57BL/6J mice. The experiment in a line: Tetrad cannabinoid tests (catalepsy, tail temperature, locomotor activity, hot plate). Type of data set: in vivo. The following applies: n = 6/group. The procedure:
C57BL/6J mice were treated i.p. with Pep19 (0.1 or 1 mg/kg), the CB1R agonist WIN55,212-2 (5 mg/kg) or vehicle (n = 6 per group) and evaluated in the tetrad cannabinoid tests. Another group of animals received Pep19 (0.1 or 1 mg/kg) or saline i.p. for 10 days, once a day. In the last day of treatment the animals were subjected to the tetrad cannabinoid tests 30 minutes after the i.p. administration. The CB1 agonist WIN55,212-2 (5 mg/kg) was administrated i.p. 30 minutes before the experiments as a positive control (n = 6 per group).
It was assayed by the bar test[40], 30 min after drug administration. Briefly, each mouse was placed on a bar oriented parallel to and approximately 4 cm above the bench surface. Cataleptic behavior was defined as the time the animal remained motionless holding on to the bar; cutoff = 300 s[41].
It was determined by using a thermal probe (Thermocom®, Nashua, NH 03062, EUA) positioned 50 cm of the animal. The mean of five pictures of five different tail regions was compared between a basal evaluation and another observation 35 min after drug administration.
It was determined by an open field test, in which a mouse was placed in a circular cage (40 cm diameter), 37 min after drug administration. The distance traveled by the animal was recorded for 10 min by the software ANY-MAZE (Stoelting).
The mouse was placed on a heated plate at 56 °C. An experimenter measured the time it took for the mouse to lick the paws or jump off of the hot plate; cutoff = 30 s[42]. The variation between a basal evaluation and another one taken 45 min after drug administration was defined as the result.

The structures appear in SMILES notation. Where a SMILES comes first, the peptide text is derived from it.

The term IC50 denotes the concentration that inhibits the measured activity by half.

In the case of `CC[C@H](C)[C@H](NC(=O)[C@@H](NC(=O)[C@@H](N)CC(=O)O)[C@@H](C)CC)C(=O)N[C@@H](C)C(=O)N[C@@H](CC(=O)O)C(=O)N[C@@H](CC(=O)O)C(=O)N[C@@H](CCC(=O)O)C(=O)N1CCC[C@H]1C(=O)N[C@@H](CC(C)C)C(=O)N[C@H](C(=O)O)[C@@H](C)O` [Pep19] (H-DIIADDEPLT-OH), the “elevated plus maze after chronic treatment: anxiety-like activity, locomotor and speed travelled” value in data set [1] (30 minutes after the last injection, n=6-7/group) is recorded as “no significant differences were observed”. Also, the “forced swim test after chronic treatment” value in data set [1] (35 minutes after the last injection, n = 6-7/group) is on record as “produced no”. The “elevated plus maze: distance moved, speed, ratio of open/total arms entries and time spent” value in data set [2] is “did not alter”. Also, in data set [3], the “forced swim test: time spent swimming and time spent floating” value was “produced no significant differences”. Further, the Heart rate in data set [4] (100 µg/Kg) is reported as 405.3 ± 2.3 (n = 3) beats/min; in data set [4] (300 µg/Kg), 399.9 ± 5.8 (n = 3) beats/min; in data set [4] (600 µg/Kg), 408.5 ± 4.1 (n = 3) beats/min. In data set [5], the IC50 was approximately 4.9 pM. Besides, the “cell toxicity, MTT reduction assay” value in data set [6] and in data set [7] was “has no ability to induce cell toxicity” in each case. Also, in data set [8] (0.1 or 1 mg/kg i.p. for 10 days, once a day, tested 30 minutes after last administration), the “cannabinoid tetrad after chronic treatment” value is “significant differences were observed between the groups treated with vehicle”. For the same compound, in data set [8] (0.1 or 1 mg/kg i.p., single administration), the “cannabinoid tetrad (catalepsy, hot plate, locomotor activity, tail temperature)” value is given as “has no effect on the cannabinoid tetrad”.
